According to ChEMBL document CHEMBL1156830, “Synthesis of fluorescent nucleoside analogs as probes for 2'-deoxyribonucleoside kinases” (Bioorg Med Chem Lett, 2010):

How the values were obtained:
[1] = molecular target: T1, Deoxynucleoside kinase (Drosophila melanogaster) (UniProt Q9XZT6); assay: Activity at Drosophila melanogaster dNK at 100 uM by spectrophotometry
T1 sequence (whole entry): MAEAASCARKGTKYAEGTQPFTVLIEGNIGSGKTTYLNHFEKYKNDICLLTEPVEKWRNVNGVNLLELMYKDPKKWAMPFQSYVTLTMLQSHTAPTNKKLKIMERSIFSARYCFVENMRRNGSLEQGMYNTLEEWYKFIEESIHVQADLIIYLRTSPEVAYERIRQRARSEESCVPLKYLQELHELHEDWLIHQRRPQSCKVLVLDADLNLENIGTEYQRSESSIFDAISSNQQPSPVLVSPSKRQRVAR

[2] = molecular target: T1, Deoxynucleoside kinase (Drosophila melanogaster); assay: Activity at Drosophila melanogaster dNK at 10 uM by spectrophotometry

Row | SMILES | Activity [1] | Activity [2]
1 | Cc1cc2cn([C@H]3C=C[C@@H](CO)O3)c(=O)nc2o1 | 330% | 
2 | Cc1cc2cn([C@H]3CC[C@@H](CO)O3)c(=O)nc2[nH]1 | 2.6% | 
3 | Cc1cc2cn([C@H]3C[C@H](F)[C@@H](CO)O3)c(=O)nc2o1 | 12% | 
4 | Cc1cc2cn([C@H]3C[C@H](O)[C@@H](CO)O3)c(=O)nc2o1 |  | 43%
5 | Cc1cc2cn([C@H]3CC[C@@H](CO)O3)c(=O)nc2o1 | 30% | 
6 | Cc1cc2cn([C@H]3C[C@H](N=[N+]=[N-])[C@@H](CO)O3)c(=O)nc2o1 | 12% | 
7 | Cc1cc2cn([C@H]3C[C@H](O)[C@@H](CO)O3)c(=O)nc2[nH]1 | 128% | 
